According to ChEMBL document CHEMBL1159343, “Isolation and structure of palstatin from the Amazon tree Hymeneae palustris(1)” (2003):
In brackets after ≈: the same amount, converted by molar mass. Activity calls are given as the source filed them. The calls are words filed in the database; no cut-off is given here.

Tests used:
Candida albicans = test: Antimicrobial activity against Candida albicans; type: functional, organism-based
Micrococcus luteus = test: Antimicrobial activity against Micrococcus luteus; type: functional, organism-based
Streptococcus pneumoniae = test: Antimicrobial activity against Streptococcus pneumoniae; type: functional, organism-based
Enterobacter cloacae = test: Antimicrobial activity against Enterobacter cloacae; type: functional, organism-based
Staphylococcus aureus = test: Antimicrobial activity against Staphylococcus aureus; type: functional, organism-based
P388 = test: Cytotoxicity against mouse P388 cells after 48 hrs by SRB assay; type: functional; settings: P388, 48 h
BXPC-3 = test: Cytotoxicity against human BxPC3 cells after 48 hrs by SRB assay; type: functional; settings: BXPC-3, 48 h
[1] = test system: Stenotrophomonas maltophilia; test: Antimicrobial activity against Stenotrophomonas maltophilia; type: functional, organism-based
MCF7 = test: Cytotoxicity against human MCF7 cells after 48 hrs by SRB assay; type: functional; settings: MCF7, 48 h
NCI-H460 = test: Cytotoxicity against human NCI-H460 cells after 48 hrs by SRB assay; type: functional; settings: NCI-H460, 48 h
KM-20L2 = test: Cytotoxicity against human KM20L2 cells after 48 hrs by SRB assay; type: functional; settings: KM-20L2, 48 h
SF-268 = test: Cytotoxicity against human SF268 cells after 48 hrs by SRB assay; type: functional; settings: SF-268, 48 h
DU-145 = test: Cytotoxicity against human DU145 cells after 48 hrs by SRB assay; type: functional; settings: DU-145, 48 h
Cryptococcus neoformans = test: Antimicrobial activity against Cryptococcus neoformans; type: functional, organism-based
Neisseria gonorrhoeae = test: Antimicrobial activity against Neisseria gonorrhoeae; type: functional
Escherichia coli = test: Antimicrobial activity against Escherichia coli; type: functional

SMILES	Activity (Candida albicans)	Activity (Micrococcus luteus)	Activity (Streptococcus pneumoniae)	Activity (Enterobacter cloacae)	Activity (Staphylococcus aureus)	GI50 (P388)	GI50 (BXPC-3)	Activity [1]	GI50 (MCF7)	GI50 (NCI-H460)	GI50 (KM-20L2)	GI50 (SF-268)	GI50 (DU-145)	Activity (Cryptococcus neoformans)	MIC (Neisseria gonorrhoeae)	MIC (Escherichia coli)
COc1cc([C@H]2Oc3cc(-c4cc(=O)c5c(O)cc(O)cc5o4)cc(OC)c3O[C@@H]2CO)cc(OC)c1O [PALSTATIN]	inactive	inactive	inactive	inactive	inactive	8.5 µg/mL (≈ 16.2 µM)	3.2 µg/mL (≈ 6.1 µM)	inactive	3.6 µg/mL (≈ 6.86 µM)	5.9 µg/mL (≈ 11.2 µM)	> 10 µg/mL	> 10 µg/mL	> 10 µg/mL	inactive	1 µg/mL (≈ 1.91 µM)	
COc1cc([C@H]2Oc3cc(-c4cc(=O)c5c(O)cc(O)cc5o4)ccc3O[C@@H]2CO)ccc1O [HYDNOCARPIN]	inactive	inactive	inactive	inactive	inactive	9.5 µg/mL (≈ 20.5 µM)	1.5 µg/mL (≈ 3.23 µM)	inactive	2.7 µg/mL (≈ 5.81 µM)	2.3 µg/mL (≈ 4.95 µM)	2 µg/mL (≈ 4.31 µM)	2.6 µg/mL (≈ 5.6 µM)	1.9 µg/mL (≈ 4.09 µM)	inactive	0.5 µg/mL (≈ 1.08 µM)	
COc1cc([C@H]2Oc3cc(-c4cc(=O)c5c(O)cc(O)cc5o4)cc(OC)c3O[C@@H]2CO)ccc1O	inactive	inactive	inactive	inactive	inactive	2.7 µg/mL (≈ 5.46 µM)	1.8 µg/mL (≈ 3.64 µM)	inactive	2.4 µg/mL (≈ 4.85 µM)	2 µg/mL (≈ 4.04 µM)	1.9 µg/mL (≈ 3.84 µM)	2.2 µg/mL (≈ 4.45 µM)	1.8 µg/mL (≈ 3.64 µM)	inactive	0.625 µg/mL (≈ 1.26 µM)	32 µg/mL (≈ 64.7 µM)
COc1cc(-c2cc(=O)c3c(O)cc(O)cc3o2)ccc1O [CHRYSOERIOL]	inactive	inactive	inactive	inactive	inactive	4 µg/mL (≈ 13.3 µM)	2.6 µg/mL (≈ 8.66 µM)	inactive	3.1 µg/mL (≈ 10.3 µM)	2.1 µg/mL (≈ 6.99 µM)	2.5 µg/mL (≈ 8.33 µM)	1.7 µg/mL (≈ 5.66 µM)	1.1 µg/mL (≈ 3.66 µM)	inactive		
COc1cc(-c2cc(=O)c3c(O)cc(O)cc3o2)cc(OC)c1O [TRICIN]	inactive	inactive	inactive	inactive	inactive	> 10 µg/mL	7.5 µg/mL (≈ 22.7 µM)	inactive	7.7 µg/mL (≈ 23.3 µM)	6.5 µg/mL (≈ 19.7 µM)	> 10 µg/mL	3 µg/mL (≈ 9.08 µM)	4.6 µg/mL (≈ 13.9 µM)	inactive		
O=c1cc(-c2ccc(O)c(O)c2)oc2cc(O)cc(O)c12 [LUTEOLIN]	inactive	inactive	inactive	inactive	inactive	> 10 µg/mL	> 10 µg/mL	inactive	9.4 µg/mL (≈ 32.8 µM)	3.8 µg/mL (≈ 13.3 µM)	> 10 µg/mL	9 µg/mL (≈ 31.4 µM)	4.4 µg/mL (≈ 15.4 µM)	inactive	16 µg/mL (≈ 55.9 µM)	64 µg/mL (≈ 224 µM)
